Reference: patent publication US20020111532A1, “Tris(hydroxymethyl)phosphino compounds as tissue crosslinking agents” (priority 2000, published 2002)

Assay: Shrinkage Temperature Assay (differential scanning calorimetric analysis)
Format: physicochemical
Details: bovine pericardium crosslinked overnight at room temperature; THPP 10 mg/mL in PBS or 0.25% glutaraldehyde
Method: Tissue Crosslinking: Bovine pericardium tissue was cut into ˜1 cm^2 samples and rinsed in ˜1 L ultrafiltered H2O for about 30 min with stirring. The samples were then rinsed in PBS for an additional 30 min at room temperature with shaking.
Samples were left in solution overnight at room temperature. Samples were then rinsed 5×30 min in ˜200 mL PBS each rinse, and then either tested immediately or stored in 0.01 M HEPES with 40% isopropyl alcohol until testing.
Shrinkage Temperature Assay: The shrinkage temperature of some crosslinked samples was determined using standard differential scanning calorimetric analysis. Briefly, 2-10 mg of tissue was heated at 10° C. increments under nitrogen. Typically, an endotherm is seen in the range of 60° C.-90° C., and this endotherm is attributed to a shrinkage transition.

Shrink Onset Temperature: 86.04 °C
SMILES: O=CCCCC=O [Glutaraldehyde, glutaraldehyde]
